Measurements reported in patent publication US20170042809A1, “STABLE LIPOSOMAL FORMULATIONS OF CARBONIC ANHYDRASE INHIBITORS FOR OCULAR DRUG DELIVERY” (Peregrine Ophthalmic PTE LTD., priority 2015, published 2017).
Counter-ions that a name gives are not always drawn.

Experiments:
[1] = In-vitro drug release by dialysis against PBS pH 7.4, HPLC; format: physicochemical; conditions: within 48 hours, dialysis (MWCO 8-10 kDal) against PBS pH 7.4
Description: Drug release studies were performed by dialysing a dorzolamide HCl solution and LipoDH prepared as described above in EXAMPLE 2 and EXAMPLE 3, respectively, against PBS at a pH of 7.4 and measuring the amount of dorzolamide released by HPLC.
Briefly, 1 mL of dorzolamide HCl solution and 1 ml LipoDH were each loaded into a dialysis tube (molecular weight cut-off of 8-10 kDal) before placing the tube into 40 mL of PBS in a 50 mL tube. The PBS in the tubes was sampled at 1, 4, 7, 24, 48, 72 and 96 hours at which time the dorzolamide concentration was measured by HPLC.
The cumulative drug release percentage vs release time for both dorzolamide HCl solution (unencapsulated) and LipoDH (encapsulated) was calculated and plotted. […] Without a doubt, encapsulation of dorzolamide in a liposome results in a formulation capable of sustained drug delivery.

[2] = Stability of LipoDH and dorzolamide HCl aqueous solution on storage at 5° C.; format: physicochemical
Description: The LipoDH formulation was described above in EXAMPLE 2. A dorzolamide HCl aqueous solution was prepared by dissolving 200 mg dorzolamide HCl in 20 mL of PBS. The dorzolamide content of both formulations was analyzed after storing them at 5° C. for 7 and 14 days. The temperature was monitored and recorded continuously to ensure stable temperature conditions.

cumulative drug release percentage [1]: 80% | degradation percentage ([2]; at 7 days, storage at 5° C.): 57.9% | degradation percentage, Start of Stability Test ([2]; start of stability test): 0.0% | drug content, Start of Stability Test ([2]; start of stability test): 9.5 mg/mL | degradation percentage, 7 Days Incubation ([2]; stored at 5° C. for 7 days): 57.9% | drug content, 7 Days Incubation ([2]; stored at 5° C. for 7 days): 4.0 mg/mL | degradation percentage, 14 Days Incubation ([2]; stored at 5° C. for 14 days): 58.9% | drug content, 14 Days Incubation ([2]; stored at 5° C. for 14 days): 3.9 mg/mL
SMILES: CCN[C@H]1C[C@H](C)S(=O)(=O)c2sc(S(N)(=O)=O)cc21 [dorzolamide HCl]
